{
  "source": "ChEMBL document CHEMBL1687731",
  "about": "“Reverse transcriptase inhibitors as potential colorectal microbicides” (Antimicrob Agents Chemother, 2009)",
  "key": {"[1]": {"test_system": "Human immunodeficiency virus 1", "experiment": "Antiviral activity against R5 tropic HIV1 BaL infected in human TZM-b1 cells after 2 hrs by luciferase assay", "format": "functional, organism-based", "conditions": "Human immunodeficiency virus 1, BaL, TZM-b1, 2 h"}, "[2]": {"test_system": "Human immunodeficiency virus 1", "experiment": "Antiviral activity against X4 tropic HIV1 3B infected in human TZM-b1 cells after 2 hrs by luciferase assay", "format": "functional, organism-based", "conditions": "Human immunodeficiency virus 1, 3B, TZM-b1, 2 h"}, "[3]": {"test_system": "Human immunodeficiency virus 1", "experiment": "Antiviral activity against X4 tropic HIV1 NL4.3 infected in human TZM-b1 cells after 2 hrs by luciferase assay", "format": "functional, organism-based", "conditions": "Human immunodeficiency virus 1, NL4.3, TZM-b1, 2 h"}, "[4]": {"test_system": "Human immunodeficiency virus 1", "experiment": "Antiviral activity against X4 tropic HIV1 NL4.3 infected in human PBMC assessed as inhibition of p24 antigen production after 2 hrs by ELISA", "format": "functional, organism-based", "conditions": "Human immunodeficiency virus 1, NL4.3, 2 h"}, "[5]": {"test_system": "Human immunodeficiency virus 1", "experiment": "Antiviral activity against R5 tropic HIV1 YU.2 infected in human PBMC assessed as inhibition of p24 antigen production after 2 hrs by ELISA", "format": "functional, organism-based", "conditions": "Human immunodeficiency virus 1, YU.2, 2 h"}, "[6]": {"test_system": "Human immunodeficiency virus 1", "experiment": "Antiviral activity against R5 tropic HIV1 R8.BaL infected in human TZM-b1 cells after 2 hrs by luciferase assay", "format": "functional, organism-based", "conditions": "Human immunodeficiency virus 1, R8.BaL, TZM-b1, 2 h"}, "[7]": {"test_system": "Human immunodeficiency virus 1", "experiment": "Antiviral activity against X4 tropic HIV1 RF infected in human PBMC assessed as inhibition of p24 antigen production after 2 hrs by ELISA", "format": "functional, organism-based", "conditions": "Human immunodeficiency virus 1, RF"}, "[8]": {"test_system": "Human immunodeficiency virus 1", "experiment": "Antiviral activity against X4 tropic HIV1 RF infected in human TZM-b1 cells after 2 hrs by luciferase assay", "format": "functional, organism-based", "conditions": "Human immunodeficiency virus 1, RF, TZM-b1, 2 h"}, "[9]": {"test_system": "Human immunodeficiency virus 1", "experiment": "Antiviral activity against R5 tropic HIV1 R8.BaL infected in human PBMC assessed as inhibition of p24 antigen production after 2 hrs by ELISA", "format": "functional, organism-based", "conditions": "Human immunodeficiency virus 1, R8.BaL"}, "[10]": {"test_system": "Human immunodeficiency virus 1", "experiment": "Antiviral activity against HIV1 A17 harboring reverse transcriptase K103N, Y181C mutant infected in human TZM-b1 cells after 2 hrs by luciferase assays", "format": "functional, organism-based"}, "[11]": {"test_system": "Human immunodeficiency virus 1", "experiment": "Antiviral activity against R5 tropic HIV1 YU.2 infected in human TZM-b1 cells after 2 hrs by luciferase assay", "format": "functional, organism-based", "conditions": "Human immunodeficiency virus 1, YU.2, TZM-b1, 2 h"}, "[12]": {"experiment": "Cytotoxicity against human TZM-bl cells by MTT assay", "format": "cell-based"}, "PBMC": {"test_system": "PBMC", "experiment": "Cytotoxicity against human PBMC by MTT assay", "format": "cell-based"}, "[13]": {"test_system": "Human immunodeficiency virus 1", "experiment": "Antiviral activity against HIV1 isolate 71361-1 harboring reverse transcriptase K65R mutant infected in human TZM-b1 cells after 2 hrs by luciferase assays", "format": "functional, organism-based"}, "[14]": {"test_system": "Human immunodeficiency virus 1", "experiment": "Antiviral activity against HIV1 isolate 8415-2 harboring reverse transcriptase K65R mutant co-expressing M184V mutant infected in human TZM-b1 cells after 2 hrs by luciferase assays", "format": "functional, organism-based", "conditions": "Human immunodeficiency virus 1, isolate 8415-2, TZM-b1, 2 h"}, "[15]": {"test_system": "Human immunodeficiency virus 1", "experiment": "Ratio of IC50 for wild type HIV1 to IC50 for HIV1 A17 harboring reverse transcriptase K103N, Y181C mutant", "format": "functional"}},
  "note": "Activity calls are given as the source filed them. The rule behind the calls is not given here.",
  "data": [
    {"compound": "CC(C)=CCOc1cc(NC(=S)c2ccoc2C)ccc1Cl", "note": "[UC 781]", "values": [
      {"measurement": "IC50", "setting": "[1]", "result": 9.34, "unit": "nM"},
      {"measurement": "IC50", "setting": "[2]", "result": 7.99, "unit": "nM"},
      {"measurement": "IC50", "setting": "[3]", "result": 10.2, "unit": "nM"},
      {"measurement": "IC50", "setting": "[4]", "result": 17.6, "unit": "nM"},
      {"measurement": "IC50", "setting": "[5]", "result": 11.2, "unit": "nM"},
      {"measurement": "IC50", "setting": "[6]", "result": 5.86, "unit": "nM"},
      {"measurement": "IC50", "setting": "[7]", "result": 9.2, "unit": "nM"},
      {"measurement": "IC50", "setting": "[8]", "result": 6.01, "unit": "nM"},
      {"measurement": "IC50", "setting": "[9]", "result": 10.2, "unit": "nM"},
      {"measurement": "Activity", "setting": "[10]", "result": "inactive"},
      {"measurement": "IC50", "setting": "[11]", "result": 5.87, "unit": "nM"},
      {"measurement": "Activity", "setting": "[12]", "result": "Non-toxic"},
      {"measurement": "Activity", "setting": "PBMC", "result": "Non-toxic"}
    ]},
    {"compound": "C[C@H](Cn1cnc2c(N)ncnc21)OCP(=O)(O)O", "note": "[TENOFOVIR ANHYDROUS]", "values": [
      {"measurement": "IC50", "setting": "[1]", "result": 2520, "unit": "nM"},
      {"measurement": "IC50", "setting": "[2]", "result": 2300, "unit": "nM"},
      {"measurement": "IC50", "setting": "[3]", "result": 6690, "unit": "nM"},
      {"measurement": "IC50", "setting": "[4]", "result": 1400, "unit": "nM"},
      {"measurement": "IC50", "setting": "[5]", "result": 884, "unit": "nM"},
      {"measurement": "IC50", "setting": "[6]", "result": 4590, "unit": "nM"},
      {"measurement": "IC50", "setting": "[13]; Human immunodeficiency virus 1, isolate 71361-1, TZM-b1, 2 h", "result": "> 30000", "unit": "nM"},
      {"measurement": "IC50", "setting": "[14]", "result": 820, "unit": "nM"},
      {"measurement": "IC50", "setting": "[7]", "result": 1600, "unit": "nM"},
      {"measurement": "IC50", "setting": "[8]", "result": 4030, "unit": "nM"},
      {"measurement": "IC50", "setting": "[9]", "result": 1010, "unit": "nM"},
      {"measurement": "IC50", "setting": "[11]", "result": 3340, "unit": "nM"},
      {"measurement": "Activity", "setting": "[12]", "result": "Non-toxic"},
      {"measurement": "Activity", "setting": "PBMC", "result": "Non-toxic"}
    ]},
    {"compound": "Cc1cc(C)c(Nc2ccnc(Nc3ccc(C#N)cc3)n2)c(C)c1", "note": "[DAPIVIRINE]", "values": [
      {"measurement": "IC50", "setting": "[1]", "result": 0.8, "unit": "nM"},
      {"measurement": "IC50", "setting": "[2]", "result": 0.53, "unit": "nM"},
      {"measurement": "IC50", "setting": "[3]", "result": 0.37, "unit": "nM"},
      {"measurement": "IC50", "setting": "[4]", "result": 1.15, "unit": "nM"},
      {"measurement": "Ratio IC50", "setting": "[15]", "result": 17},
      {"measurement": "IC50", "setting": "[5]", "result": 1.11, "unit": "nM"},
      {"measurement": "IC50", "setting": "[6]", "result": 0.19, "unit": "nM"},
      {"measurement": "Activity", "setting": "[13]", "result": "inactive"},
      {"measurement": "IC50", "setting": "[7]", "result": 1.48, "unit": "nM"},
      {"measurement": "IC50", "setting": "[8]", "result": 0.84, "unit": "nM"},
      {"measurement": "IC50", "setting": "[9]", "result": 1.09, "unit": "nM"},
      {"measurement": "IC50", "setting": "[10]; Human immunodeficiency virus 1, A17, TZM-b1, 2 h", "result": 8.34, "unit": "nM"},
      {"measurement": "IC50", "setting": "[11]", "result": 0.15, "unit": "nM"},
      {"measurement": "Activity", "setting": "[12]", "result": "Non-toxic"},
      {"measurement": "Activity", "setting": "PBMC", "result": "Non-toxic"}
    ]}
  ]
}
